Reference: paper PMC5224880, “Discovery and Molecular Basis of a Diverse Set of Polycomb Repressive Complex 2 Inhibitors Recognition by EED” (PLoS ONE, 2017)

Key:
Type in all cases: biochemical
NSD2 = target: T1, NSD2 (Homo sapiens, UniProt O96028); assay: HMT panel selectivity: NSD2
T1 sequence (O96028 1-1365): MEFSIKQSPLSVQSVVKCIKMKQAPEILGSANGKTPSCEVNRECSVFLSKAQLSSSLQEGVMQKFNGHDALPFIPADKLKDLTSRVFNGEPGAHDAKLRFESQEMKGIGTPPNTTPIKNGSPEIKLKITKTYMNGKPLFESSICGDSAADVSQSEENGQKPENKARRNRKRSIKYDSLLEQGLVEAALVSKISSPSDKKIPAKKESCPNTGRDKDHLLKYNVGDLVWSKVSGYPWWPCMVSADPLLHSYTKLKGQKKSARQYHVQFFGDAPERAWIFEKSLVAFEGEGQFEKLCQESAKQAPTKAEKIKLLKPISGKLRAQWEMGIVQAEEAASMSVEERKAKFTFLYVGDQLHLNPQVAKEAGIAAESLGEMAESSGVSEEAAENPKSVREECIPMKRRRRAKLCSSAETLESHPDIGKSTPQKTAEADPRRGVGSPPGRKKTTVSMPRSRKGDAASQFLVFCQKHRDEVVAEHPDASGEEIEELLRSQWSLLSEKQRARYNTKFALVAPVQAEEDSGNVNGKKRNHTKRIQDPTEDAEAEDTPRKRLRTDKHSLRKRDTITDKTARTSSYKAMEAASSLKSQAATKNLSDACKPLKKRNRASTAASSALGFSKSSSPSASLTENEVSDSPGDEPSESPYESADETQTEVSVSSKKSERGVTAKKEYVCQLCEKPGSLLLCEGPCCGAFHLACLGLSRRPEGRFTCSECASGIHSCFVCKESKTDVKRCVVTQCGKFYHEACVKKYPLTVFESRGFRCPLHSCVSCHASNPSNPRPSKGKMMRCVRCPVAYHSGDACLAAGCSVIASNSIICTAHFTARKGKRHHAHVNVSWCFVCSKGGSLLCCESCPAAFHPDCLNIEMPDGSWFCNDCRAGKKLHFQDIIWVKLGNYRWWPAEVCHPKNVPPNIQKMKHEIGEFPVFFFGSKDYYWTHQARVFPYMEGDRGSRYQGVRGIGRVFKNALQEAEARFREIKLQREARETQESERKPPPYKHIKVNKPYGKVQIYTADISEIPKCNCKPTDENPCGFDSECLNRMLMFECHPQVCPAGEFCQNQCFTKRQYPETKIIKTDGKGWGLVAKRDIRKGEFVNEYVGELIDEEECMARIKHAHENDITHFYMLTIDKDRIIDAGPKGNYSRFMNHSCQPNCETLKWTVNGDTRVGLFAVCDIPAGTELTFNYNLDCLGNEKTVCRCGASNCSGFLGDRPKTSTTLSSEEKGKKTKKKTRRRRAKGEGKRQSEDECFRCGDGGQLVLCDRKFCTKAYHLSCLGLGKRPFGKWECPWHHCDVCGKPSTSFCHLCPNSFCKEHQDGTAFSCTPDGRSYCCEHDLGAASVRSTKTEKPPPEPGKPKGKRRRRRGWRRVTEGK
Experimental: (§1) Note: for EZH2, EZH2/EED/SUZ12/RBAP48/AEBP2 was used in the assay; for EZH1, EZH1/EED/SUZ12/RBAP48/AEBP2 was used in the assay; for MLL, MLL/WDR5/RBBP5/ASH2L/ was use in the assay. a, H3K27me0 peptide was used as substrate for both EZH2 and EZH1 activity; b, H3K27me1 peptide was used as substrate for both EZH2 and EZH1 activity. All HMT reactions were performed as described previously. ref: Proc Natl Acad Sci U S A. 2012 Dec 26;109(52):21360-5.

SETD6 = target: T2, SETD6 (Homo sapiens, UniProt Q8TBK2); assay: HMT panel selectivity: SETD6
T2 sequence (Q8TBK2 1-473): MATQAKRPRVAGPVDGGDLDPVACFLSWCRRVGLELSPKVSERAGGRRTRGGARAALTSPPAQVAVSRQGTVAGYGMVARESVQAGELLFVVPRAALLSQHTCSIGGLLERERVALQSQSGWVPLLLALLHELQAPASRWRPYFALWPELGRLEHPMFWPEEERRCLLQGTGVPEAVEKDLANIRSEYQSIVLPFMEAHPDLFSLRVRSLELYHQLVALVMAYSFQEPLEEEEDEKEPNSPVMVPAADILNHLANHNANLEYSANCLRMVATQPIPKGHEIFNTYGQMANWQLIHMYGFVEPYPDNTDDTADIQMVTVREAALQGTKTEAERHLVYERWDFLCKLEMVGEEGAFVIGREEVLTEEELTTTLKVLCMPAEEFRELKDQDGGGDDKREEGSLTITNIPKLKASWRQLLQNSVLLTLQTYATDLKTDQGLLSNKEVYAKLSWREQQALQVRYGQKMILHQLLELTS
Experimental: as §1

ESET = ESET (Homo sapiens, UniProt Q15047); assay: HMT panel selectivity: ESET
Experimental: as §1

NSD1 = NSD1 (Homo sapiens, UniProt Q96L73); assay: HMT panel selectivity: NSD1
Experimental: as §1

[1] = target: EZH2 (EZH2/EED/SUZ12/RBAP48/AEBP2) (Homo sapiens, UniProt O75530+Q15910); assay: HMT panel selectivity: EZH2
Description: This assay employs liquid chromatography mass spectrometry technology using peptide or nucleosome as substrate and then detects the formation of the co-product SAH [11, 25].
as §1, with “activity.” for “activity. All HMT reactions were performed as described previously. ref: Proc Natl Acad Sci U S A. 2012 Dec 26;109(52):21360-5.”

Sequence of EZH2 (EZH2/EED/SUZ12/RBAP48/AEBP2) (Q15910 whole entry): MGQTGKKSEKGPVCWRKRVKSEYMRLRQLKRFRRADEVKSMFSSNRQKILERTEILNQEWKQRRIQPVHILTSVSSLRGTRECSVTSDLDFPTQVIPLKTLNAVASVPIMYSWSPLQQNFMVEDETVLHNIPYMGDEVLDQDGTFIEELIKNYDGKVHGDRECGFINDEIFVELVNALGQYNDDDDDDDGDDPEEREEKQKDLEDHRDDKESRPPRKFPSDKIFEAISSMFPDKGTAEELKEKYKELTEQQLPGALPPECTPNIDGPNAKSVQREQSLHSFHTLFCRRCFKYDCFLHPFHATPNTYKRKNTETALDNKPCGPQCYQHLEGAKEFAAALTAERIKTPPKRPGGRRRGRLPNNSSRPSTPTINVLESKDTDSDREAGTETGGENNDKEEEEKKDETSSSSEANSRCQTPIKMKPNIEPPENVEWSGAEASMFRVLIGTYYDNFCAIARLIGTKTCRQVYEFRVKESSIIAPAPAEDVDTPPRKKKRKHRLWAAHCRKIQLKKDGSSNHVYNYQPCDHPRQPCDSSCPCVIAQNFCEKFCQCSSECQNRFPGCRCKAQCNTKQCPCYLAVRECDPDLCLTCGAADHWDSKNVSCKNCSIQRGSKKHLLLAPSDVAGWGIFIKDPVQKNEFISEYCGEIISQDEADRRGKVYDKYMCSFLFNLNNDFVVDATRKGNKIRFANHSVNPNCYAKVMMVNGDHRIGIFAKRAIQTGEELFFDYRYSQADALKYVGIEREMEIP
Sequence of EZH2 (EZH2/EED/SUZ12/RBAP48/AEBP2) (O75530 whole entry): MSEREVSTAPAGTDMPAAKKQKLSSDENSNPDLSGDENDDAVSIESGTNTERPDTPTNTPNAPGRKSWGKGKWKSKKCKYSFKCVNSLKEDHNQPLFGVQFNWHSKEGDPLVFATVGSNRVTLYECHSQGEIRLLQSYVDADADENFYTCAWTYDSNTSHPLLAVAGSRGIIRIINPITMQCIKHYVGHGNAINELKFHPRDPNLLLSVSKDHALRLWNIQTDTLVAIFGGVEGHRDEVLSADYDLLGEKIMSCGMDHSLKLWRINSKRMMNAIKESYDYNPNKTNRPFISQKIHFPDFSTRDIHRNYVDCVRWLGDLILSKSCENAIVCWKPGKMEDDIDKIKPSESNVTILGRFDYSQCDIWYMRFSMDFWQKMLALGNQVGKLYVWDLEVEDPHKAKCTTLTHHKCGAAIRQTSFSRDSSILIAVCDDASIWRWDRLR
Sequence of EZH2 (EZH2/EED/SUZ12/RBAP48/AEBP2) (Q15022 whole entry partner): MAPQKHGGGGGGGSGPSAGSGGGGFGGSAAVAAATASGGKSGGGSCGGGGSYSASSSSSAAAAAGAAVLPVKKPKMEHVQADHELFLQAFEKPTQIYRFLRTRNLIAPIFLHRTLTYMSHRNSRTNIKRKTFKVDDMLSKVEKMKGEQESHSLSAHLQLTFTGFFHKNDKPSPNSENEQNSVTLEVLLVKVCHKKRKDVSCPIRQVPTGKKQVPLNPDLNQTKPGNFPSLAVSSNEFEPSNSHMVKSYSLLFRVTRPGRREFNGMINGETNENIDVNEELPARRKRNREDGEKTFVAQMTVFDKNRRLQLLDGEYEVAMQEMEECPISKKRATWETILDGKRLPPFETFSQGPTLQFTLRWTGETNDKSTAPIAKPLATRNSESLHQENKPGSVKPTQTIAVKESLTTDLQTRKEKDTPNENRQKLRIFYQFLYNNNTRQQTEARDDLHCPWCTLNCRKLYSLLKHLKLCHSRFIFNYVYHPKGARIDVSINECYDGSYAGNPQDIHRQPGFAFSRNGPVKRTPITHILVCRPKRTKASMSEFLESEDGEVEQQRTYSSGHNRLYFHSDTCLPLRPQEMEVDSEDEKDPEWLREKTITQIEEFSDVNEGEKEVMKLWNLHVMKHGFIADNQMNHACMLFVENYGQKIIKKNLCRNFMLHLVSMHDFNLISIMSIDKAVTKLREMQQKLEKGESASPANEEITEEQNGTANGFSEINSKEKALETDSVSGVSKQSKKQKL
Sequence of EZH2 (EZH2/EED/SUZ12/RBAP48/AEBP2) (Q09028 whole entry partner): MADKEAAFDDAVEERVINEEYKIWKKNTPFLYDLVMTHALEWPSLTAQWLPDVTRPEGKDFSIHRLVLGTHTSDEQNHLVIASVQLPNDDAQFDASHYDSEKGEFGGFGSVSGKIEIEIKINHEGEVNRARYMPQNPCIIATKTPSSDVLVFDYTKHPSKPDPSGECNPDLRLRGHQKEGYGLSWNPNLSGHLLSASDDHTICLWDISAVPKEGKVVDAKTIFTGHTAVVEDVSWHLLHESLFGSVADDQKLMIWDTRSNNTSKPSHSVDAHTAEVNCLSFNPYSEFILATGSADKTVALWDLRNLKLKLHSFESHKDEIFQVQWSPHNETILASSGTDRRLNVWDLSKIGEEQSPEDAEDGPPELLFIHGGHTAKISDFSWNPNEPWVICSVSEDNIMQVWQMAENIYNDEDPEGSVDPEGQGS
Sequence of EZH2 (EZH2/EED/SUZ12/RBAP48/AEBP2) (Q6ZN18 whole entry partner): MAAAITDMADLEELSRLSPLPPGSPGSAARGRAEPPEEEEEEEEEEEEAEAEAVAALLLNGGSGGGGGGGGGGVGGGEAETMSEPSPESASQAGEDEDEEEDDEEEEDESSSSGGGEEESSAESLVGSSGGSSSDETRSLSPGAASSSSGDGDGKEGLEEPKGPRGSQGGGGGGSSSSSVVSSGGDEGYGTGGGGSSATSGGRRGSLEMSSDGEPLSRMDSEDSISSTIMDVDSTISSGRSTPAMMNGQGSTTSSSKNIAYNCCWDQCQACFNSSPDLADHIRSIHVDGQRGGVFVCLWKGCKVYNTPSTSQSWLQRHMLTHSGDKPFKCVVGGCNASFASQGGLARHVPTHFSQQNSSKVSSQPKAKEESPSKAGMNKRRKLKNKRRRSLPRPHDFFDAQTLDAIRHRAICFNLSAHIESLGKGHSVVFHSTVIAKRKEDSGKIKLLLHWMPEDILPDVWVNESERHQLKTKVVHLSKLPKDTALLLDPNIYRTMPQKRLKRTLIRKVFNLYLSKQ

IC50 (NSD2) [µM] | IC50 (SETD6) [µM] | IC50 (ESET) [µM] | IC50 (NSD1) [µM] | IC50 [1] [µM] | SMILES
> 100 | > 100 | > 100 | > 100 | 99 | Cc1cc(C)n(-c2cc(N3CCc4ccccc4C3)ccc2[N+](=O)[O-])n1 [EED666]
> 100 | > 100 | > 100 | > 100 | – | COc1ccccc1CN1CC(c2cn(C)c3ccccc23)C(N(C)C)C1 (centres unmarked) [EED709]
> 100 | > 100 | > 100 | > 100 | 87 | COc1cc(-c2cc3n(c(=N)c2C#N)CCc2cc4c(cc2-3)OCO4)ccc1OC(C)C [EED396]

SMILES | IC50 (NSD2) [µM] | IC50 (SETD6) [µM] | IC50 (ESET) [µM] | IC50 (NSD1) [µM] | IC50 [1] [µM]
COc1cccc(CC2CC3Cc4c(cccc4OC)CC3N(C)C2)c1 (centres unmarked) [EED210] | > 100 | > 100 | > 100 | > 100 | –
N#Cc1c2c(c3nncn3c1NCc1ccco1)CN(Cc1ccccc1)CC2 [EED162] | > 100 | > 100 | > 100 | > 100 | 2.2
